In patent publication US5001154A, “Fervescence composition” (K.K. Ueno Seiyaku Oyo Kenkyujo, priority 1987, dated 1991):

What was measured:
[1] = fervescence activity by intravenous injection (rising of body temperature), 1 mg/kg; type: in vivo, Wister male rats; conditions: 1 mg/kg intravenous, urethane-anesthetized rats
Procedure: fervescence activity by intravenous injection Test animals were Wister male rats (8 weeks old) weighing 200±10 g. The rats were applied to anesthesia by intraperitoneal injection of 1.25 g/kg of urethane. Each test drug was dissolved into ethyl alcohol. The ethyl alcohol solution was diluted with Ringer's solution at least 50 times just before use and 1 mg/kg of the each test drug was intravenously administered. Body temperature was measured in the same manner as in Example 1. Ringer's solution containing ethyl alcohol was administered as control. Rising of body temperature is shown by the rising degree (°C.) from the temperature before administration.

[2] = sedation activity and rising of body temperature in dog; type: in vivo, hybrid adult dog; conditions: intravenous
Source text: Sedation Activity A 19-methyl type compound having strong fervescence activity was compared with PGE2 […] sedation activity. A hybrid adult dog was held on a holder for dog and intravenously administered with a test drug dissolved in Ringer's solutions at the forefoot. Sedation activity was judged as follows: Sedation Degree 1: Disappearance of body movement 2: Closing of the eyes 3: Leaning on the holding belt

[3] = fervescence (recovery of body temperature) activity at hemorrhage load; type: in vivo, Wister male rats; conditions: rat loaded with hemorrhage
Procedure: fervescence (recovery of body temperature) activity at hemorrhage load
Wister male rats (weight: 200 g) were subcutaneously injected on the back with 1.5 g/kg of urethane, subjected to anesthesia. Hemorrhage was then induced by withdrawal of blood by puncture of the heart for the total volume of 3 ml equivalent to 1.5% of the body weight. After kept in a room for 60 minutes, the rats were administered intravenously with test solutions prepared by dissolving test drugs into Ringer's solution so as to administer the rat at a dose of 0.5 or 1 mg/kg, and change of the body temperature was observed. Ringer's solution was administered as control.
In the figures, (1), (2) and (3) correspond to the results of administration of doses 1 mg/kg, 0.5 mg/kg and Ringer's solution alone, respectively.

[4] = fervescence activity by intracerebroventricular injection (rising of body temperature); type: in vivo, Wister male rats; conditions: 400 ng in 3 μl into lateral ventricle, urethane-anesthetized rats, rectal temperature
Procedure: fervescence activity by intracerebroventricular injection
Wister male rats (8 weeks old) were used as test animals.
Rats were applied to anesthesia by intraperitoneal injection with 1.25 g/kg of urethane and a stainless guide cannula was inserted into the lateral ventricle for administration of a test drug according to Pellegrino's Rat brain atras.
Each test drug was dissolved into an artificial cerebrospinal fluid and 400 ng as drug in 3 μl was injected through the injection cannula for 15 seconds. The artificial cerebrospinal fluid alone was injected as control. Body temperature was measured continuously at the rectum. Rising of body temperature is shown by the rising degree (°C.) from the temperature before administration.

SMILES | Rising of Body Temperature [1] | further results
CCCCCC(=O)CC[C@H]1[C@H](C)CC(=O)[C@@H]1C/C=C\CCCC(=O)OCC [compound 43] | +0.2 °C | –
CCCCC(C)(C)C(=O)CC[C@H]1[C@H](O)CC(=O)[C@@H]1C/C=C\CCCC(=O)OC [compound 35] | +1.0 °C | –
CCC[C@H](C)CC(=O)CC[C@H]1[C@H](O)CC(=O)[C@@H]1C/C=C\CCCC(=O)OC [compound 44] | +0.2 °C | –
COCCCCC(C)(C)C(=O)CC[C@H]1[C@H](O)CC(=O)[C@@H]1C/C=C\CCCC(=O)OC [compound 50] | +0.2 °C | –
CCCCCC(=O)CC[C@H]1[C@H](O)CC(=O)[C@@H]1C/C=C\CC(C)CC(=O)OCC (stereo partly drawn) [compound 31] | +1.0 °C | –
CCCCC(F)C(=O)CC[C@H]1[C@H](O)CC(=O)[C@@H]1C/C=C\CCCC(=O)OCC (stereo partly drawn) [compound 40] | +1.4 °C | –
COCCCCCC(=O)CC[C@H]1[C@H](O)CC(=O)[C@@H]1C/C=C\CCCC(=O)OC [compound 47] | +0.3 °C | –
COC(=O)CCCCC(=O)C[C@H]1C(=O)C[C@@H](O)[C@@H]1CCC(=O)CCCC(C)C [compound 15] | +0.7 °C | Rising of Body Temperature ([2]; 0.5 mg/kg): 1.2 °C
CCCCCCCC(=O)CC[C@H]1[C@H](O)CC(=O)[C@@H]1CCCCCCC(=O)OC [compound 5] | +0.4 °C | –
CCCCCCCC(=O)CC[C@H]1[C@H](C)CC(=O)[C@@H]1C/C=C\CCCC(=O)OC [compound 55] | +0.2 °C | –
CCCCCC(=O)CC[C@H]1[C@H](C)CC(=O)[C@@H]1CC(=O)CCCCC(=O)OCC [compound 20] | +1.3 °C | Rising of Body Temperature ([3]; 0.5 mg/kg intravenous): +0.5 °C; Rising of Body Temperature ([3]; 1 mg/kg intravenous): +0.8 °C
CCCCC[C@H](O)/C=C/[C@H]1[C@H](O)CC(=O)[C@@H]1C/C=C\CCCC(=O)OC [compound 59] | +1.2 °C | Rising of Body Temperature ([2]; 0.01 mg/kg): 0.4 °C
CCCCC(C)(C)C(=O)CC[C@H]1[C@H](O)CC(=O)[C@@H]1CC(=O)CCCCC(=O)OCC [compound 13] | +1.1 °C | –
CCCCC(F)C(=O)CC[C@H]1[C@H](C)CC(=O)[C@@H]1CC(=O)CCCCC(=O)OCC (stereo partly drawn) [compound 21] | +1.1 °C | –
CCCCC(F)C(=O)CC[C@H]1[C@H](C)CC(=O)[C@@H]1C/C=C\CCCC(=O)OCC (stereo partly drawn) [compound 42] | +1.4 °C | –
CCCCC(F)C(=O)CC[C@H]1[C@H](O)CC(=O)[C@@H]1C/C=C\CCCC(=O)OC (stereo partly drawn) [compound 39] | +0.9 °C | –
CCOC(=O)CCC/C=C\C[C@H]1C(=O)C[C@@H](O)[C@@H]1CCC(=O)CCCC(C)C [compound 46] | +0.6 °C | –
CCCCCCCC(=O)CC[C@H]1[C@H](O)CC(=O)[C@@H]1C/C=C\CCCC(=O)OC [compound 53] | +0.5 °C | –
CCCCC(F)C(=O)/C=C/[C@H]1[C@H](O)CC(=O)[C@@H]1C/C=C\CCCC(=O)OC (stereo partly drawn) [compound 56] | +1.0 °C | –
CCCCCCCC(=O)CC[C@H]1[C@H](O)CC(=O)[C@@H]1C/C=C\CCCC(=O)OCC [compound 54] | +0.2 °C | –
CCCCC(C)C(=O)CC[C@H]1[C@H](O)CC(=O)[C@@H]1C/C=C\CCCC(=O)OCC (stereo partly drawn) [compound 33] | +0.9 °C | –
CCCCC(C)C(=O)CC[C@H]1[C@H](O)CC(=O)[C@@H]1C/C=C\CCCC(=O)OC (stereo partly drawn) [compound 32] | +1.4 °C | –
CCCCC[C@H](O)/C=C/[C@H]1[C@H](O)CC(=O)[C@@H]1C/C=C\CCCC(=O)O [compound 58] | +0.7 °C | –
COCCCCCC(=O)CC[C@H]1[C@H](O)CC(=O)[C@@H]1C/C=C\CC=CC(=O)OC [compound 48] | +0.2 °C | –
CCCCC(C)(C)C(=O)CC[C@H]1[C@H](O)CC(=O)[C@@H]1C/C=C\CCCC(=O)OCC [compound 36] | +0.6 °C | –
COC(=O)CCC/C=C\C[C@H]1C(=O)C[C@@H](O)[C@@H]1CCC(=O)CCCCC=C(C)C [compound 52] | +0.2 °C | –
CCCCC(C)C(=O)CC[C@H]1[C@H](O)CC(=O)[C@@H]1CC(=O)CCCCC(=O)OC (stereo partly drawn) [compound 11] | +1.5 °C | –

SMILES | Rising of Body Temperature [1] | further results
CCCCC(F)C(=O)CC[C@H]1[C@H](O)CC(=O)[C@@H]1C/C=C\CCCC(=O)O (stereo partly drawn) [compound 38] | +0.3 °C | –
CCCCCCC(=O)CC[C@H]1[C@H](O)CC(=O)[C@@H]1CC(=O)CCCCC(=O)OCC [compound 18] | +0.7 °C | Rising of Body Temperature ([3]; 0.5 mg/kg intravenous): +0.4 °C; Rising of Body Temperature ([3]; 1 mg/kg intravenous): +0.8 °C
CCCCCC(=O)CC[C@H]1[C@H](O)CC(=O)[C@@H]1CC(=O)CCCCC(=O)OCC (relative stereo) [compound 9] | +0.7 °C | –
CCCCCC(=O)CC[C@H]1[C@H](O)CC(=O)[C@@H]1CC(=O)CCCCC(=O)OCC [compound 8] | +0.6 °C | Rising of Body Temperature ([3]; 0.5 mg/kg intravenous): +0.7 °C; Rising of Body Temperature ([3]; 1 mg/kg intravenous): +0.8 °C; Rising of Body Temperature [4]: +0.4 °C
COC(=O)CCCCC(=O)C[C@H]1C(=O)C[C@@H](CO)[C@@H]1CCC(=O)CCCC(C)C [compound 17] | +0.4 °C | –
CCCCC(F)C(=O)CC[C@H]1[C@H](O)CC(=O)[C@@H]1CC(=O)CCCCC(=O)OCC (stereo partly drawn) [compound 14] | +1.0 °C | –
CCCCCC(=O)CC[C@H]1[C@H](C)CC(=O)[C@@H]1CC(=O)CCCCC(=O)OC [compound 19] | +1.0 °C | –
CCCCCC(=O)CC[C@H]1[C@H](O)CC(=O)[C@@H]1C/C=C\CCCC(=O)OCc1ccccc1 [compound 27] | +0.3 °C | –
CCCCCC(=O)CC[C@H]1[C@H](O)CC(=O)[C@@H]1CC(=O)CCCCC(=O)OC [compound 7] | +0.8 °C | Rising of Body Temperature [4]: +0.6 °C
CCCCC(O)C(=O)CC[C@H]1[C@H](O)CC(=O)[C@@H]1C/C=C\CCCC(=O)OCC (stereo partly drawn) [compound 37] | +0.2 °C | –
CCCCC(C)C(=O)CC[C@H]1[C@H](O)CC(=O)[C@@H]1C/C=C\CC(C)CC(=O)OC (stereo partly drawn) [compound 34] | +1.0 °C | –
CCCCC[C@H](O)/C=C/[C@H]1[C@H](O)CC(=O)[C@@H]1CCCCCCC(=O)O [compound 57] | 0 °C | –
CCCCC(C)C(=O)CC[C@H]1[C@H](O)CC(=O)[C@@H]1CC(=O)CCCCC(=O)OCC (stereo partly drawn) [compound 12] | +0.9 °C | –
CCCCC[C@H](O)/C=C/[C@H]1[C@H](O)CC(=O)[C@@H]1C/C=C\CCCC(=O)OC [Test drug 59, PGE2 methyl ester, reference compound] | – | sedation activity (in words) [2]: clear sedation activity
COCCCCCC(=O)CC[C@H]1[C@H](O)CC(=O)[C@@H]1C/C=C\CC(C)CC(=O)OC (stereo partly drawn) [compound 49] | +0.2 °C | –
CCCCCC(=O)CC[C@H]1[C@H](O)CC(=O)[C@@H]1CCCCC=CC(=O)O [compound 3] | 0 °C | –
CCCCCC(=O)CC[C@H]1[C@H](O)CC(=O)[C@@H]1C/C=C\CCCC(=O)O [compound 22] | 0 °C | Rising of Body Temperature [4]: +0.7 °C
CCCCCC(=O)CC[C@H]1[C@H](O)CC(=O)[C@@H]1CCCCCCC(=O)O [compound 1] | 0 °C | Rising of Body Temperature [4]: +0.4 °C
CCCCCC(=O)CC[C@H]1[C@H](O)CC(=O)[C@@H]1CC(=O)CCCCC(=O)OCCCC [compound 10] | +0.2 °C | –
CCCCCC(F)C(=O)CC[C@H]1[C@H](O)CC(=O)[C@@H]1C/C=C\CCCC(=O)OC (stereo partly drawn) [compound 41] | +0.8 °C | –
CCCCCC(=O)CC[C@H]1[C@H](O)CC(=O)[C@@H]1C/C=C\CC(C)CC(=O)OC (stereo partly drawn) [compound 30] | +1.7 °C | –
CCCCCC(=O)CC[C@H]1[C@H](O)CC(=O)[C@@H]1CC(=O)CCCCC(=O)O [compound 6] | 0 °C | Rising of Body Temperature [4]: +0.8 °C
CCCCCC(=O)CC[C@H]1[C@H](O)CC(=O)[C@@H]1C/C=C\CCCC(=O)OCCO [compound 28] | +0.4 °C | –
CCCCCC(=O)CC[C@H]1[C@H](O)CC(=O)[C@@H]1CCCCC=CC(=O)OC [compound 4] | +0.8 °C | –
CC(C)=CCCCCC(=O)CC[C@H]1[C@H](O)CC(=O)[C@@H]1C/C=C\CCCC(=O)O [compound 51] | +0.2 °C | –
CCCCCC(=O)CC[C@H]1[C@H](O)CC(=O)[C@@H]1C/C=C\CC=CC(=O)OC [compound 29] | +1.0 °C | –
